Structures are written as SMILES. Where two headings read alike, the source gives them in different places. Bounds are passed on as bounds.

One data set concerns HCoV-OC43. In words: Antiviral cytopathicity assay, HCoV-OC43 in HEL 299 cells. The format is cell-based. Background: Cytopathic effects are the visible damage that an infection or toxin causes in cultured cells.
For data set [1], the system named is respiratory syncytial virus (RSV) strain A Long. The experiment in a line: microbe, parasite or virus in culture. The format is cell-based. The settings on record: for EC50: human respiratory syncytial virus, HEL 299, read-out: EC50 (μM) RSV A Long, HEL 299.
Data set [2] concerns yellow fever virus (YFV) strain 17 D. In words: microbe, parasite or virus in culture. The format is cell-based. The following applies: for EC50: Yellow fever virus, Huh-7, read-out: EC50 (μM) YFV 17D, Huh7.
Data set [3] is described as follows: in vitro. The following applies: human.
Data set [4] in a line: in vitro. The following applies: human. This is another data set of the same source.
Data set [5] in a line: in vitro. The following applies: dog.
Setting [6] is: Betacoronavirus 1, OC43, HEL 299, read-out: EC50 (μM) HCoV-OC43, HEL 299.
Setting [7] is: Betacoronavirus 1, OC43, HEL 299 cells, reduction of virus-induced cytopathicity by 50%, read-out: EC50 (μM) HCoV-OC43, HEL 299.

As a reminder, the melting point is the temperature of the solid-liquid transition. For `O=c1[nH]cc(N2CCc3ccccc3C2)c(=O)[nH]1`, the melting point is 311 to 312 °C.
One may read the EC50 as the concentration that produces a half-maximal response. For `O=c1[nH]c(=O)n(C2C=CC(O)C2)cc1N1CCCCCC1` (racemic) [(±)-3a, (±)-1-(4′-Hydroxycyclopent-2′-en-1′-yl)-5-(azepan-1″-yl)uracil], the EC50 (in the data set on HCoV-OC43 (setting [6]); in data set [1]; in data set [2]) was above 100 µM in each case. The CC50 in “in vitro [3]”, in “in vitro [4]” and in the data set “in vitro [5]” was above 100 µM each time.
Consider `O=c1[nH]c(=O)n(C2C=CC(O)C2)cc1N1CCN(c2ccccc2)CC1` (racemic) [(±)-3b, (±)-1-(4′-Hydroxycyclopent-2′-en-1′-yl)-5-(4″-phenylpiperazin-1″-yl)uracil], for which the EC50 (in the data set on HCoV-OC43 (setting [6]); in data set [1]; in data set [2]) was above 100 µM throughout. Besides, the CC50 in the data set “in vitro [3]”, in the data set “in vitro [4]” and in “in vitro [5]” was above 100 µM in each case.
Regarding `CCCCCCCc1ccc(Nc2cn(C3C=CC(O)C3)c(=O)[nH]c2=O)cc1` (racemic) [(±)-3f, (±)-4′-Hydroxycyclopent-2′-en-1′-yl)-5-((4′′-heptylphenyl)amino)uracil], the “biological activity against HCoV OC43 (in words)” value (“biological activity” for short) in the data set with HCoV-OC43 is given as “moderate biological activity”. Further, the EC50 was 22.4 µM with HCoV-OC43 (setting [6]), above 100 µM in data set [1] and above 100 µM in data set [2]. Besides, the CC50 in the data set “in vitro [3]” was above 100 µM; in “in vitro [4]”, above 100 µM; in “in vitro [5]” it was 70.4 µM.
As for `CC(C)c1ccc(Nc2cn(C3C=CC(O)C3)c(=O)[nH]c2=O)cc1` (racemic) [(±)-3g, (±)-1-(4′-Hydroxycyclopent-2′-en-1′-yl)-5-((4″-isopropylphenyl)amino)uracil], the EC50 (in the data set with HCoV-OC43 (setting [6]); in data set [1]; in data set [2]) was above 100 µM in each case. Moreover, the CC50 in “in vitro [3]”, in “in vitro [4]” and in “in vitro [5]” was above 100 µM throughout.
`CCCCCCCOc1ccc(Nc2cn(C3C=CC(O)C3)c(=O)[nH]c2=O)cc1` (racemic) [(±)-3i, (±)-1-(4′-Hydroxycyclopent-2′-en-1′-yl)-5-((4″-(heptyloxy)phenyl)amino)uracil]: in the data set on HCoV-OC43, the “biological activity” value is “moderate biological activity”. The EC50 in the data set on HCoV-OC43 (setting [6]) is 36.8 µM; in data set [1] it was above 100 µM; in data set [2] it was above 100 µM. The CC50 in the data set “in vitro [5]” came to 34 µM.
For the compound `O=c1c(N2CCCCCC2)cn(C2C=CC(O)C2)c(=O)n1C1C=CC(O)C1` (racemic) [(±)-4a, (±)-1-(4′-hydroxycyclopent-2′-en-1′-yl)-3-(4‴-hydroxycyclopent-2‴-en-1‴-yl)-5-(azepan-1″-yl)uracil], the EC50 (with HCoV-OC43 (setting [6]); in data set [1]; in data set [2]) was above 100 µM in each case. For the same compound, the CC50 in “in vitro [3]”, in the data set “in vitro [4]” and in the data set “in vitro [5]” was above 100 µM throughout.
For the compound `O=c1c(N2CCN(c3ccccc3)CC2)cn(C2C=CC(O)C2)c(=O)n1C1C=CC(O)C1` (racemic) [(±)-4b, (±)-1-(4′-hydroxycyclopent-2′-en-1′-yl)-3-(4‴-hydroxycyclopent-2‴-en-1‴-yl)-5-(4″-phenylpiperazin-1″-yl)uracil], the EC50 (with HCoV-OC43 (setting [6]); in data set [1]; in data set [2]) was above 100 µM throughout. Besides, the CC50 in “in vitro [3]”, in “in vitro [4]” and in the data set “in vitro [5]” was above 100 µM throughout.
Consider `CCCCCCc1ccc(Nc2cn(C3C=CC(O)C3)c(=O)n(C3C=CC(O)C3)c2=O)cc1` (racemic) [(±)-4d, (±)-1-(4′-hydroxycyclopent-2′-en-1′-yl)-3-(4‴-hydroxycyclopent-2‴-en-1‴-yl)-5-(-((4″-hexylphenyl)amino)uracil], for which, in the data set with HCoV-OC43, the “biological activity” value is “moderate biological activity”. Moreover, the EC50 with HCoV-OC43 (setting [6]) is 28.7 µM; in data set [1] it was above 100 µM; in data set [2], above 100 µM. The CC50 in the data set “in vitro [3]” was above 100 µM; in the data set “in vitro [4]”, above 100 µM; in “in vitro [5]”, 51.2 µM.
As for `CCCCCCCc1ccc(Nc2cn(C3C=CC(O)C3)c(=O)n(C3C=CC(O)C3)c2=O)cc1` (racemic) [(±)-4f, (±)-1-(4′-hydroxycyclopent-2′-en-1′-yl)-3-(4‴-hydroxycyclopent-2‴-en-1‴-yl)-5-(-((4″-heptylphenyl)amino)uracil], the concentration giving a half-maximal response (EC50) (with HCoV-OC43 (setting [6]); in data set [1]; in data set [2]) was above 100 µM throughout. In addition, the CC50 in the data set “in vitro [3]”, in the data set “in vitro [4]” and in the data set “in vitro [5]” was above 100 µM each time.
`CCCCOc1ccc(Oc2cn(C3C=CC(O)C3)c(=O)[nH]c2=O)cc1` (racemic) [(±)-10b, (±)-1-(4′-Hydroxycyclopent-2′-en-1′-yl)-5-(4″-butoxyphenoxy)uracil]: the concentration giving a half-maximal response (EC50) (in the data set with HCoV-OC43 (setting [6]); in data set [1]; in data set [2]) was above 100 µM in each case. Also, the CC50 in “in vitro [3]”, in “in vitro [4]” and in “in vitro [5]” was above 100 µM in each case.
Turning to `O=c1[nH]c(=O)n(C2C=CC(O)C2)cc1Oc1ccc(Cl)cc1` (racemic) [(±)-10c, (±)-1-(4′-Hydroxycyclopent-2′-en-1′-yl)-5-(4″-chlorophenoxy)uracil], the concentration giving a half-maximal response (EC50) (in the data set on HCoV-OC43 (setting [6]); in data set [1]; in data set [2]) was above 100 µM throughout. Moreover, the CC50 in “in vitro [3]”, in “in vitro [4]” and in “in vitro [5]” was above 100 µM each time.
For `CC(C)(C)c1ccc(Oc2cn(C3C=CC(O)C3)c(=O)[nH]c2=O)cc1` (racemic) [(±)-10d, (±)-1-(4′-Hydroxycyclopent-2′-en-1′-yl)-5-(4″-(tert-butyl)phenoxy)uracil], the EC50 (with HCoV-OC43 (setting [6]); in data set [1]; in data set [2]) was above 100 µM in each case. Moreover, the CC50 in “in vitro [3]”, in the data set “in vitro [4]” and in “in vitro [5]” was above 100 µM each time.
As to `Cc1cc(C)cc(Oc2cn(C3C=CC(O)C3)c(=O)n(C3C=CC(O)C3)c2=O)c1` (racemic) [(±)-11a, (±)-1-(4′-hydroxycyclopent-2′-en-1′-yl)-3-(4‴-hydroxycyclopent-2‴-en-1‴-yl)-5-(3″,5″-dimethylphenoxy)uracil], the “biological activity” value with HCoV-OC43 was “moderate biological activity”. For the same compound, the results for the half-maximal effective concentration (EC50) (with HCoV-OC43 (setting [6]); in data set [1]; in data set [2]) were 29.8 µM, 28.7 µM and above 100 µM, respectively. The “inhibition of respiratory syncytial virus RSV (strain A Long) (in words)” value in data set [1] was “inhibited”. In “in vitro [5]”, this compound showed a CC50 of 39.3 µM.
Take `CC(C)(C)c1ccc(Oc2cn(C3C=CC(O)C3)c(=O)n(C3C=CC(O)C3)c2=O)cc1` (racemic) [(±)-11d, (±)-1-(4′-hydroxycyclopent-2′-en-1′-yl)-3-(4‴-hydroxycyclopent-2‴-en-1‴-yl)-5-(4″-(tert-butyl)phenoxy)uracil]: the half-maximal effective concentration (EC50) in the data set on HCoV-OC43 (setting [6]) is above 100 µM; in data set [1], above 100 µM; in data set [2], 47.9 µM. Also, the “activity against yellow fever virus YFV (strain 17D) (in words)” value in data set [2] is listed as “demonstrated activity”. In “in vitro [5]”, this compound yielded a CC50 of 40.3 µM.
Turning to `O=c1[nH]cc(N2CCCCCC2)c(=O)[nH]1` [Compound 2a, 5-(Azepan-1-yl)uracil], the EC50 (in the data set with HCoV-OC43 (setting [7]); in data set [1]; in data set [2]) was above 100 µM throughout. The CC50 in “in vitro [3]”, in the data set “in vitro [4]” and in the data set “in vitro [5]” was above 100 µM in each case.
`O=c1[nH]cc(N2CCN(c3ccccc3)CC2)c(=O)[nH]1` [Compound 2b, 5-(4-Phenylpiperazin-1-yl)uracil] returned a melting point of 352 to 354.5 °C. In addition, the concentration for a half-maximal effect (EC50) with HCoV-OC43 (setting [7]) is above 100 µM. For the same compound, the 50% effective concentration (EC50) in data set [1] was above 100 µM. Moreover, the EC50 in data set [2] was above 100 µM. For the same compound, in the data set “in vitro [3]”, the CC50 was above 100 µM. Also, the CC50 in the data set “in vitro [4]” was above 100 µM. In the data set “in vitro [5]”, the CC50 is above 100 µM.
As to `CCCCCCc1ccc(Nc2c[nH]c(=O)[nH]c2=O)cc1` [Compound 2d, 5-((4′-Hexylphenyl)amino)uracil], the melting point lay in the range of 332 to 333 °C. Moreover, in the data set with HCoV-OC43 (setting [7]), the EC50 was above 100 µM. Also, the half-maximal effective concentration (EC50) in data set [1] is above 100 µM. Further, the EC50 in data set [2] is above 100 µM. In the data set “in vitro [3]”, this compound returned a CC50 above 100 µM. Moreover, the CC50 in “in vitro [4]” is above 100 µM. The compound further showed a CC50 in “in vitro [5]” above 100 µM.
`CC(C)(C)c1ccc(Nc2c[nH]c(=O)[nH]c2=O)cc1` [Compound 2e, 5-((4′-tert-Butylphenyl)amino)uracil] displayed a melting point of 354.5 to 356.5 °C. For the same compound, the half-maximal effective concentration (EC50) in the data set on HCoV-OC43 (setting [7]) was above 100 µM. Also, the EC50 in data set [1] was above 100 µM. Besides, the EC50 in data set [2] was above 100 µM. The compound further came in with a CC50 in “in vitro [3]” above 100 µM. The CC50 in the data set “in vitro [4]” is above 100 µM. Moreover, the CC50 in “in vitro [5]” was above 100 µM.
With `Cc1cc(C)cc(Oc2c[nH]c(=O)[nH]c2=O)c1` [Compound 5a, 5-(3,5-Dimethylphenoxy)uracil], the melting point lay in the range of 293 to 295 °C. Besides, the EC50 in the data set with HCoV-OC43 (setting [7]) was above 100 µM. In data set [1], the 50% effective concentration (EC50) was above 100 µM. In addition, the EC50 in data set [2] is above 100 µM. The compound also registered a CC50 in “in vitro [3]” above 100 µM. Also, in “in vitro [4]”, the CC50 is above 100 µM. Besides, the CC50 in “in vitro [5]” was above 100 µM.
Compound `CCCCOc1ccc(Oc2c[nH]c(=O)[nH]c2=O)cc1` [Compound 5b, 5-(4-Butoxyphenoxy)uracil] registered a melting point of 271 to 274 °C. Moreover, the EC50 with HCoV-OC43 (setting [7]) is above 100 µM. The EC50 in data set [1] was above 100 µM. In data set [2], the 50% effective concentration (EC50) is above 100 µM. In the data set “in vitro [3]”, this compound showed a CC50 above 100 µM. In “in vitro [4]”, this compound came in with a CC50 above 100 µM. This compound yielded a CC50 in “in vitro [5]” above 100 µM.
As for `CCC(CC)COC(=O)[C@H](C)N[P@](=O)(OC[C@H]1O[C@@](C#N)(c2ccc3c(N)ncnn23)[C@H](O)[C@@H]1O)Oc1ccccc1` [Remdesivir, reference compound], the figures for the EC50 (in the data set on HCoV-OC43 (setting [6]); in data set [1]) were 0.03 µM and 0.01 µM, respectively. Further, the CC50 in the data set “in vitro [3]” and in the data set “in vitro [4]” was above 10 µM in each case.

The values above are taken from article PMC9102953, “New Derivatives of 5-Substituted Uracils: Potential Agents with a Wide Spectrum of Biological Activity” (Molecules, 2022).
